Source: patent US11406649B2, “Treatment of upper aerodigestive tract disorders and cough” (IVIEW THERAPEUTICS, INC., priority 2018, dated 2022)
“Also recorded” adds a separate entry of the source.

Columns and labels:
[1] = Water solubility of 1-dialkylphosphorylalkanes; type: physicochemical
From the text: The DIPA compounds are colorless liquids with a density less than water. These structures differ from those described by Rowsell and Spring U.S. Pat. No. 4,070,496 because '496 structures have their “head” (phosphine oxide group) covered by larger, more lipophilic groups. […] The applicant synthesized these analogs (which are achiral, by contrast to the structures of '496 which are >95% chiral). […] This increased water-solublility is striking (Table 3). […] The DIPA analogs are now mobile in the extracellular fluids and permeate between cells to access nerve endings in the stratum basale.

oropharynx and esophagus = assay: Sensory events and cold discomfort of compounds on throat, chest and body; details: for taste: oral cavity / tongue
From the text: The terms “icy cold” is used to describe this adverse event in the throat.
Most likely, the compound rapidly distributed and activated cold sensations in the eosophageal lining.

anesthetized rat [2] = assay: In vivo transdermal activity: shaking after topical application to abdominal skin of anesthetized rat; details: pure compound 20 μL on abdominal skin, counted 40 min
Protocol: Shaking frequency was counted for 40 min after topical application.
The importance of water solubility for permeation was further illustrated in studies on the abdominal skin of anesthetized rat. […] The pharmacokinetic determinants of bioactivity are precise. Thus, for the avoidance of cold discomfort, DIPA-1-9 has to reach the receptors in the stratum basale but not “over-stimulate”.

anesthetized rat [3] = assay: Blood pressure and heart rate after subcutaneous injection in anesthetized rat; type: in vivo; details: injected subcutaneously
Oral Cavity and Pharynx [4] = assay: Sensory qualities of compounds in syrup applied to base of tongue of volunteers; type: in vivo, human
Protocol: The DIPA compounds was 5 mg/mL in cherry-flavored syrup in a volume of 0.8 mL per dose. The sensory effect were recorded every 5 min for 1 hr.
Tests were on four volunteers, with 3 to 5 trials per substance. Compounds were prepared in cherry-flavored syrup at 5 mg/mL and administered ˜0.8 mL per dose with a 2 mL plastic vial to the base of the tongue. The subjects asked to rate the sensations for cooling intensity, cold discomfort and adverse taste.
The concentration of the DIPA compounds was 5 mg/mL in cherry-flavored syrup administered in a volume of 0.8 mL per dose. The sensory effect were recorded every 5 min for 1 hr.

cloned hTRPM8 channel = cloned hTRPM8 channel (Homo sapiens (Human), UniProt Q7Z2W7); assay: TRPM8 agonist activity, Fluo-8 calcium FLIPR assay (ChanTest); type: cell-based; details: L-menthol = 1.0
Chain of cloned hTRPM8 channel (Q7Z2W7 whole entry): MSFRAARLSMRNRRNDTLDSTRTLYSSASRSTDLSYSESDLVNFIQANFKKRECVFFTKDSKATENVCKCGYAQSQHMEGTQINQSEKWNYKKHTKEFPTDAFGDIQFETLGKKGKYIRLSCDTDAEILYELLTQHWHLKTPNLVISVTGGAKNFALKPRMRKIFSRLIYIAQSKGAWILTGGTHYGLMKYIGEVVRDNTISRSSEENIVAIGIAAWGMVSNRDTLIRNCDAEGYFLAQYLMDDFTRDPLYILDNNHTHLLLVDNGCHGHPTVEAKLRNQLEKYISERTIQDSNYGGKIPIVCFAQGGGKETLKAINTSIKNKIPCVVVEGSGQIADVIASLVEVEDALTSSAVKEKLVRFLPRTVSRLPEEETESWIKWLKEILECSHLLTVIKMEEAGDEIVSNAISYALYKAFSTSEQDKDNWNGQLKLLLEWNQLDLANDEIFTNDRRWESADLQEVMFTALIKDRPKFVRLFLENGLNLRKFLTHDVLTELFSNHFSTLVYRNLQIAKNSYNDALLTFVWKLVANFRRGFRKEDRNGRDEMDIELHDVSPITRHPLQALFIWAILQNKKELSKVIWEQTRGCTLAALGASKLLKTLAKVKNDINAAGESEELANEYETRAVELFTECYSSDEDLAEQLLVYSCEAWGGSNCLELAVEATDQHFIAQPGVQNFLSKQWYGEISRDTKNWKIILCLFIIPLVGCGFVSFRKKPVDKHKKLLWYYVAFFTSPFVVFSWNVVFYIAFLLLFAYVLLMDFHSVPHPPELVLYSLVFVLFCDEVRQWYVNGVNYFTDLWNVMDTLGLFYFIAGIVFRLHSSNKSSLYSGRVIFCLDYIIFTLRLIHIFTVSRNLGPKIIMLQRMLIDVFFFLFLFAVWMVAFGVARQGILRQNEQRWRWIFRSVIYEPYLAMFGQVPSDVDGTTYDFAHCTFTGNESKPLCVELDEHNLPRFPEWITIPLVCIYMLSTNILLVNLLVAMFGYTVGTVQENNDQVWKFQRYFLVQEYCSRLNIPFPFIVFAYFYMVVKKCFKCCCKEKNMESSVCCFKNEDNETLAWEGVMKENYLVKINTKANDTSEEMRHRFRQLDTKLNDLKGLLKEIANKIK
Protocol: In the first set of data, the potency and in vitro effects of test compounds were evaluated on cloned hTRPM8 channel (encoded by the human TRPM8 gene, expressed in CHO cells) using a Fluo-8 calcium kit and a Fluorescence Imaging Plate Reader (FLIPR^TETRA™) instrument. […] Test solutions were in a HEPES-buffered saline, in 384-well plates, and placed into the FLIPR instrument (Molecular Devices Corporation, Union City, Calif., USA). […] The test cells were Chinese Hamster Ovary (CHO) cells stably transfected with human TRPM8 cDNAs. Concentration-response data were analyzed via FLIPR Control software) and fitted to a Hill equation for the EC50.

Oral Cavity and Pharynx [5] = assay: Sensory qualities of compounds in syrup applied to base of tongue of volunteers; type: in vivo, human; details: concentration increased to 15 mg/mL, 0.8 mL per dose
oral cavity = assay: DIPA-1-9 sprayed into the mouth with aerosol sprayer
[6] = tested on: capsaicin induced coughing; assay: Capsaicin induced coughing in an animal model; details: in vivo
[7] = target: TRPV1 channels (human TRPV1 gene expressed in HEK293 cells) (Homo sapiens (Human), UniProt Q8NER1); assay: Selectivity on TRPV1 channels; type: cell-based; details: positive control capsaicin
Chain of TRPV1 channels (human TRPV1 gene expressed in HEK293 cells) (Q8NER1 whole entry): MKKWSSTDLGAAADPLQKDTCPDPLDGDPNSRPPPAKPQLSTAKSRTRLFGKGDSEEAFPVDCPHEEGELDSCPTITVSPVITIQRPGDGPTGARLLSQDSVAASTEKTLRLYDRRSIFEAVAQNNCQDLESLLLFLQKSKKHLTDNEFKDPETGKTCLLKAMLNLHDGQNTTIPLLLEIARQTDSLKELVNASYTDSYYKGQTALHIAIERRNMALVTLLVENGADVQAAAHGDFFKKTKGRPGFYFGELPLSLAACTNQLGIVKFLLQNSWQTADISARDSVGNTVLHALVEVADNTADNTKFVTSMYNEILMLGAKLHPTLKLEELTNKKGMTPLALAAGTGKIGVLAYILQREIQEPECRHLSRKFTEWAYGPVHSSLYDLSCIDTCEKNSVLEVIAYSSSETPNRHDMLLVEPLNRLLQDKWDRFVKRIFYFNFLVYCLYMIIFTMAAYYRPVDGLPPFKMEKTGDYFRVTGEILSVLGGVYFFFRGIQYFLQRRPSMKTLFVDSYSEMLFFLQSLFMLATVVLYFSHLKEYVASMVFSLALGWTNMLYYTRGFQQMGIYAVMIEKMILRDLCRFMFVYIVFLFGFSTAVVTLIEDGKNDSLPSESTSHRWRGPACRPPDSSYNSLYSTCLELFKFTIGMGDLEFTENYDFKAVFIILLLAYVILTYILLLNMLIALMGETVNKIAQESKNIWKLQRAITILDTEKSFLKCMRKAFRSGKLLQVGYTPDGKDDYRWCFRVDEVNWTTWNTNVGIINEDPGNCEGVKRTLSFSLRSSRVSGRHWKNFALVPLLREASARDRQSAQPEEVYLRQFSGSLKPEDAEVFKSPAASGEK
From the text: (§1) In a third set, the selectivity of the test compounds on TRPM8, TRPV1 channels (human TRPV1 gene expressed in HEK293 cells) and TRPA1 channels (human TRPA1 gene expressed in CHO cells) were examined.
(§2) The selectivity of DIPA-1-9 on TRP channel receptors, TRPM8, TRPA1 and TRPV1 is shown in FIG. 3 of Yang et. al. A novel TRPM8 agonist relieves dry eye discomfort. BMC Ophthalmology ([…]) 17: 101, and incorporated herein by reference. The applicant is a co-author of this publication.

[8] = tested on: respiratory syncytial virus (RSV) induced cough; assay: Mouse cough model of respiratory syncytial virus infection; type: in vivo; details: 0.5 mg in 25 μL intranasally per mouse, 10 min before count
rat skin = assay: Skin irritation tests on rat skin; type: in vivo; set-up: key to Redness after 20 μL applied topically to skin (scale of 0 to +++): scale of 0 to +++; scale of 0 to +++; scale of 0 to +++; scale of 0 to +++
[9] = tested on: eyelids of patients with dry eye disorder; assay: Application to eyelids of patients with dry eye disorder; type: in vivo, human
[10] = tested on: upper aerodigestive tract discomfort; assay: Case studies of DIPA-1-9 syrup in volunteers with upper aerodigestive tract discomfort; type: in vivo, human
From the text: The rationale and data set for selecting DIPA-1-9 in syrup as a treatment agent for upper aerodigestive discomfort have been described. […] The coolness spreads to the rest of throat and intensifies, as if a spoonful of rich ice cream had been swallowed. […] The cooling sensation can be used to facilitate mucus expectoration from the airways. Also relieved is the sense of suffocation when lying down to sleep in a subject that has dyspnea.

[11] = target: TRPA1 channels (human TRPA1 gene expressed in CHO cells) (Homo sapiens (Human), UniProt O75762); assay: Selectivity on TRPA1 channels; type: cell-based; details: positive control mustard oil
Chain of TRPA1 channels (human TRPA1 gene expressed in CHO cells) (O75762 whole entry): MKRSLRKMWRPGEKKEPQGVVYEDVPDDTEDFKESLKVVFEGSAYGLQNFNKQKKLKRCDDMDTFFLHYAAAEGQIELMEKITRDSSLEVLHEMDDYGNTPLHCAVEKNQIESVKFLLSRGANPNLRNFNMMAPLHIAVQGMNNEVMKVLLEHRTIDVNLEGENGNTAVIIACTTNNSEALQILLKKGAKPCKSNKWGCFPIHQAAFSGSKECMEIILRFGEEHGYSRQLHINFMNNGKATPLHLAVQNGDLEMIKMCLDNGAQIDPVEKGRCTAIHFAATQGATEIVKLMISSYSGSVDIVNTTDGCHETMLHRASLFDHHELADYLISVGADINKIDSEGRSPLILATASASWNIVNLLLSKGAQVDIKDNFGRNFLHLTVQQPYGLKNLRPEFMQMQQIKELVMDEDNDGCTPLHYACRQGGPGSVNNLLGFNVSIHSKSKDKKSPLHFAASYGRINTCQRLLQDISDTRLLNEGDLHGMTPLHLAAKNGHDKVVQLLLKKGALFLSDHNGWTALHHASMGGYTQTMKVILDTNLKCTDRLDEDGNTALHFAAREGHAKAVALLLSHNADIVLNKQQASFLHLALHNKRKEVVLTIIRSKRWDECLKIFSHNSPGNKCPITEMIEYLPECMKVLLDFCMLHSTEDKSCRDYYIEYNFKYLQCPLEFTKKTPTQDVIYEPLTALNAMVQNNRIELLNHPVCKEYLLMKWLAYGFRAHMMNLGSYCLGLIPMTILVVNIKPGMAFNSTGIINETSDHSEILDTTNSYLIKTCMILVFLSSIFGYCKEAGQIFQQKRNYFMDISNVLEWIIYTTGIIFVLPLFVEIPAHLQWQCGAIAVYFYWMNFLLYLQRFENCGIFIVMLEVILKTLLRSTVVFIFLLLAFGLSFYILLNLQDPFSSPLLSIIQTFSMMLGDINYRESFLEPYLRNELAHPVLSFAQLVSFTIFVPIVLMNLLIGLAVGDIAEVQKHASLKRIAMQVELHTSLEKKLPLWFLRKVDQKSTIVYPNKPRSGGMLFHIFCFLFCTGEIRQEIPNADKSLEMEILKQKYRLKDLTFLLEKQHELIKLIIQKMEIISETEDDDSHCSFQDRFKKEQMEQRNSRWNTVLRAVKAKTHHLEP
From the text: as §1, §2

[12] = 5 mg/mL in cherry-flavored syrup, ~0.8 mL
[13] = 10 subjects with cough, sprayer 5 mg/mL cherry syrup, 1 week

Compound: CCCCCCCCCP(=O)(C(C)C)C(C)C [DIPA-1-9, 1-Di(isopropyl)-phosphinoyl-nonane]
- water solubility relative to prior art / di-sec-butyl or mixed isopropyl-sec-butyl analogs [1]: 10 ×
- solubility ([1]; water): > 300 mg/mL
- icy cold / pain in throat (oropharynx and esophagus; DIPA-1-9 up to 12 mg per unit): not seen; also recorded: did not produce stinging
- taste (oropharynx and esophagus): did not have significant adverse taste
- taste (oropharynx and esophagus; listed as DIPA1-9): does not have a strong metallic taste
- shaking after topical application (anesthetized rat [2]): not active
- effect on blood pressure or heart rate (anesthetized rat [3]): did not affect blood pressure or heart rate
- Adverse Taste (Oral Cavity and Pharynx [4]; [12]): 0
- Discomfort (Oral Cavity and Pharynx [4]; [12]): 0
- Sensation (Oral Cavity and Pharynx [4]; [12]): cool
- persistence of general sense of refreshment in the throat (Oral Cavity and Pharynx [4]; human, in vivo): ≥ 3 h
- Relative Potency to L-menthol (cloned hTRPM8 channel): 4.0
- pain or discomfort at increased concentration (Oral Cavity and Pharynx [5]): did not produce icy cold or pain
- taste (oral cavity; 10 mg/mL spray): slight taste of bitterness
- persistence of sensation of cooling (oral cavity; 10 mg/mL spray, contents spat out): ≥ 1 h
- cooling of oral cavity (oral cavity; 10 mg/mL, 0.07 mL per activation, 3 activations): robust cooling of the oral cavity
- capsaicin induced coughing [6]: inhibited capsaicin induced coughing
- activity on TRPV1 (selectivity) [7]: selective for TRPM8 and not TRPVI and TRPA1; also recorded: not on TRPV1 or TRPA1 receptors
- cough frequency [8]: significantly inhibited cough frequency
- inflammatory response (rat skin; pure compound, 20 μL, abdominal skin of anesthetized rat): did not cause significant inflammatory response
- Redness after 20 μL applied topically to skin (scale of 0 to +++) (rat skin; rat skin, 20 μL): 0
- irritation of shaved rat skin (rat skin; up to 20 mg/mL): not to be irritating
- irritation of eyelids [9]: not to be irritating
- discomfort of satiety ([10]; 8 mg/mL in simple syrup, three over-weight individuals): instantly relieved
- chronic cough outcome (cough variant asthma cases) ([10]; 8 mg/mL in syrup, 1 mL vials as needed): the coughing problem had disappeared; also recorded: the cough was gone
- subjects reporting not effective [10, 13]: 3
- subjects reporting partially effective [10, 13]: 4
- subjects reporting very effective [10, 13]: 3
- residual antinociceptive effect duration ([10]; application to the throat): 3 h
- time to decrease in cough frequency ([10]; person, 8 mg/mL in cherry-flavored syrup): ≤ 3 days
- activity on TRPA1 (selectivity) [11]: selective for TRPM8 and not TRPVI and TRPA1; also recorded: not on TRPV1 or TRPA1 receptors
